Test results: patent publication US7125883B1, “Integrin receptor ligands” (Abbott GmbH & Co. KG, priority 1999, dated 2006)

Target: integrin αvβ3 (Homo sapiens, UniProt P05106+P06756)
Test: Integrin αvβ3 assay (competition with vitronectin for binding to solid-phase integrin αvβ3)
Settings: competition between human vitronectin and test substance for binding to integrin αvβ3 bound to a solid phase; only a ranking in words is given

Structure (SMILES)	IC50 values (concentration of the ligand at which 50% of the ligand is displaced)
O=C(O)C(F)(F)F.O=C(O)CC(Cn1cc(-c2ccccc2)c(NCCC(=O)Nc2ncc[nH]2)nc1=O)NC(=O)OCc1ccccc1 (stereo not shown) [Example I-63, 2-[(3-{[1-(2-{[(Benzyloxy)carbonyl]amino}-3-carboxy-propyl)-2-oxo-5-phenyl-1,2-dihydropyrimidin-4-yl]amino}-propanoyl)amino]-1H-imidazol-1-ium trifluoroacetate]	best result
CCCc1cn(C[C@H](NC(=O)OCc2ccccc2)C(=O)O)c(=O)nc1N1CCC(CNc2ccccn2)CC1.O=C(O)C(F)(F)F [Example I-64, 2-[({1-[1-((2S)-{[(Benzyloxy)carbonyl]amino}-2-carboxy-ethyl)-2-oxo-5-propyl-1,2-dihydropyrimidin-4-yl]-piperidin-4-yl}methyl)amino]pyridinium trifluoroacetate]	best result
Cc1cn(CC(CC(=O)O)NC(=O)OCc2ccccc2)c(=O)nc1NCc1ccc(CNc2ccccn2)cc1.O=C(O)C(F)(F)F (stereo not shown) [Example I-54]	best result
O=C(O)C(F)(F)F.O=C(O)CC(Cn1cc(C2CCOCC2)c(NCCC(=O)Nc2ncc[nH]2)nc1=O)NC(=O)OCc1ccccc1 (stereo not shown) [Example I-61, 2-[(3-{[1-(2-{[(Benzyloxy)carbonyl]amino}-3-carboxy-propyl)-2-oxo-5-tetrahydro-2H-pyran-4-yl-1,2-dihydropyrimidin-4-yl]amino}propanoyl)amino]-1H-imidazol-1-ium trifluoroacetate]	best result
